{"source": "patent US4540700A", "about": "“Treatment of diabetic complications with certain spiro-imidazolidine-diones” (Alcon Laboratories, Inc., priority 1984, dated 1985)", "system": "cataract formation in galactocemic rats", "experiment": "in vivo dose response by intubation (per oral) in galactocemic rats, cataract (vacuole) formation", "parameters": "species or system Charles River CD (Sprague-Dawley derived) male rats", "procedure": "B. In vivo dose response studies were conducted to test the in vivo activity of the following compounds by intubation (per oral) in galactocemic rats on a 30% galactose diet previously described:\nStock suspensions of the test compounds and all dilutions of the compound were formulated with 0.03% by weight Tween 80.\nHealthy, Charles River CD (outbred albino, Sprague-Dawley derived) male rats, aged 20-30 days, without observable ocular defects and ranging in weight from 35-45 grams, were acclimated to experimental conditions (in quarantine) for two days prior to beginning the study.\nRats were individually assigned to one of twenty-three groups according to a random number schedule. Two rats, belonging to the same drug-diet treatment group, were housed per cage. Treatment and control groups consisted of six (6) rats each with no replacement in the event of death, and were designated as follows:\nLenses of all eyes were examined with a hand-held ophthalmoscope in the early stages of cataract development and a penlight for the stages, snowflake-like, snowflake, and nuclear cataract. Lens grading occurred every day for the first ten study days, and then every other day until study Day 14.\nThe relative potency determination was made at 7 drug levels over half log dose intervals. The response (percent cataracts formed and/or the time to cataract formation) was plotted against mg/kg and/or moles/kg.\nThe study was directed to the suppression and/or elimination of the initial stages of cataract development characterized by vacuoles or snowflake-likeopacities only. It was assumed therefore that suppression and/or elimination of vacuoles or lens opacification by the test drugs affects the transport, absorption and/or metabolism of galactose in such a manner as to prevent subsequent osmotic disturbances normally leading to tissue degeneration and advanced cataract. Advanced cataract defined as stages 2-4 of the Sipple classification was assumed to be of secondary importance to the etiology of cataract inhibition.\nIn the event where cataract stage other than vacuole formed, such as snowflake-like opacities, this cataract was counted similarly as vacuole in percent cataract formation.\nThis study yielded this expected effect in the control groups.\nAll animals were fed Purina Laboratory Chow and water, ad libitum, for the two day acclimation period. All drugs were dosed orally by intubation using an animal feeding needle (Popper and Sons), 18 or 20 gauge, attached to a 1 or 3 ml syringe. Once the dosing time schedule was established, the schedule was followed throughout the study to compensate for any diurnal variation.\nThe animals were kept on a twelve hour day/night cycle. The temperature and humidity were determined each day at the scheduled dosing time of 1:00 p.m.\nThe animals were weighed every other day and adjustments to dosage amounts to compensate for weight gain were made each day prior to the dose time. All food was routinely withheld from all animal groups for four hours (9:00 a.m.) prior to the drug dose and restored two hours (3:00 p.m.) post-dose. Otherwise sufficient amounts of chow or diet mixture were maintained in the food hopper to allow the animals to eat ad libitum. There were two days of drug dosage with the animals remaining on Purina Laboratory Chow (Days 1 and 2). The 30% galactose diet mixture was introduced to the animals two hours post-dose on Day 3 which constituted Day 1 of the study.\nAll eyes were examined with a hand-held ophthalmoscope and/or penlight at the times designated in the Experimental Design section.\nIt has been found in previous studies that dilation of the eye with a mydriactic (i.e. Mydriacyl) is not necessary for accurate grading, due to the semi-transparent nature of the rat iris. In the early stages (i.e., grades -, ±, and +) the lens was observed by reflecting the ophthalmoscope beam off the retina back through the lens and iris. Using this technique, vacuoles appear as dark, almost opaque patches. […]"}
{"compound": "O=C1NC(=O)C2(N1)c1cc(F)ccc1-c1ccc(F)cc12", "note": "[M, Spiro-[2,7-difluorofluoren-9,4'-imidazolidine]-2',5'-dione]", "values": [{"measurement": "Percent of Rat Eyes With at Least Vacuoles Formed", "setting": "0.126 mg/kg p.o., Day 0", "result": 0, "unit": "%"}, {"measurement": "Percent of Rat Eyes With at Least Vacuoles Formed", "setting": "0.126 mg/kg p.o., Day 1", "result": 0, "unit": "%"}, {"measurement": "Percent of Rat Eyes With at Least Vacuoles Formed", "setting": "0.126 mg/kg p.o., Day 2", "result": 0, "unit": "%"}, {"measurement": "Percent of Rat Eyes With at Least Vacuoles Formed", "setting": "0.126 mg/kg p.o., Day 3", "result": 0, "unit": "%"}, {"measurement": "Percent of Rat Eyes With at Least Vacuoles Formed", "setting": "0.126 mg/kg p.o., Day 4", "result": 0, "unit": "%"}, {"measurement": "Percent of Rat Eyes With at Least Vacuoles Formed", "setting": "0.126 mg/kg p.o., Day 5", "result": 0, "unit": "%"}, {"measurement": "Percent of Rat Eyes With at Least Vacuoles Formed", "setting": "0.126 mg/kg p.o., Day 6", "result": 8, "unit": "%"}, {"measurement": "Percent of Rat Eyes With at Least Vacuoles Formed", "setting": "0.126 mg/kg p.o., Day 7", "result": 25, "unit": "%"}, {"measurement": "Percent of Rat Eyes With at Least Vacuoles Formed", "setting": "0.126 mg/kg p.o., Day 8", "result": 67, "unit": "%"}, {"measurement": "Percent of Rat Eyes With at Least Vacuoles Formed", "setting": "0.126 mg/kg p.o., Day 9", "result": 67, "unit": "%"}, {"measurement": "Percent of Rat Eyes With at Least Vacuoles Formed", "setting": "0.126 mg/kg p.o., Day 10", "result": 67, "unit": "%"}, {"measurement": "Percent of Rat Eyes With at Least Vacuoles Formed", "setting": "0.126 mg/kg p.o., Day 12", "result": 67, "unit": "%"}, {"measurement": "Percent of Rat Eyes With at Least Vacuoles Formed", "setting": "0.126 mg/kg p.o., Day 14", "result": 75, "unit": "%"}, {"measurement": "Percent of Rat Eyes With at Least Vacuoles Formed", "setting": "0.4 mg/kg p.o., Day 0", "result": 0, "unit": "%"}, {"measurement": "Percent of Rat Eyes With at Least Vacuoles Formed", "setting": "0.4 mg/kg p.o., Day 1", "result": 0, "unit": "%"}, {"measurement": "Percent of Rat Eyes With at Least Vacuoles Formed", "setting": "0.4 mg/kg p.o., Day 2", "result": 0, "unit": "%"}, {"measurement": "Percent of Rat Eyes With at Least Vacuoles Formed", "setting": "0.4 mg/kg p.o., Day 3", "result": 0, "unit": "%"}, {"measurement": "Percent of Rat Eyes With at Least Vacuoles Formed", "setting": "0.4 mg/kg p.o., Day 4", "result": 0, "unit": "%"}, {"measurement": "Percent of Rat Eyes With at Least Vacuoles Formed", "setting": "0.4 mg/kg p.o., Day 5", "result": 0, "unit": "%"}, {"measurement": "Percent of Rat Eyes With at Least Vacuoles Formed", "setting": "0.4 mg/kg p.o., Day 6", "result": 0, "unit": "%"}, {"measurement": "Percent of Rat Eyes With at Least Vacuoles Formed", "setting": "0.4 mg/kg p.o., Day 7", "result": 0, "unit": "%"}, {"measurement": "Percent of Rat Eyes With at Least Vacuoles Formed", "setting": "0.4 mg/kg p.o., Day 8", "result": 0, "unit": "%"}, {"measurement": "Percent of Rat Eyes With at Least Vacuoles Formed", "setting": "0.4 mg/kg p.o., Day 9", "result": 0, "unit": "%"}, {"measurement": "Percent of Rat Eyes With at Least Vacuoles Formed", "setting": "0.4 mg/kg p.o., Day 10", "result": 0, "unit": "%"}, {"measurement": "Percent of Rat Eyes With at Least Vacuoles Formed", "setting": "0.4 mg/kg p.o., Day 12", "result": 0, "unit": "%"}, {"measurement": "Percent of Rat Eyes With at Least Vacuoles Formed", "setting": "0.4 mg/kg p.o., Day 14", "result": 0, "unit": "%"}, {"measurement": "Percent of Rat Eyes With at Least Vacuoles Formed", "setting": "1.26 mg/kg p.o., Day 0", "result": 0, "unit": "%"}, {"measurement": "Percent of Rat Eyes With at Least Vacuoles Formed", "setting": "1.26 mg/kg p.o., Day 1", "result": 0, "unit": "%"}, {"measurement": "Percent of Rat Eyes With at Least Vacuoles Formed", "setting": "1.26 mg/kg p.o., Day 2", "result": 0, "unit": "%"}, {"measurement": "Percent of Rat Eyes With at Least Vacuoles Formed", "setting": "1.26 mg/kg p.o., Day 3", "result": 0, "unit": "%"}, {"measurement": "Percent of Rat Eyes With at Least Vacuoles Formed", "setting": "1.26 mg/kg p.o., Day 4", "result": 0, "unit": "%"}, {"measurement": "Percent of Rat Eyes With at Least Vacuoles Formed", "setting": "1.26 mg/kg p.o., Day 5", "result": 0, "unit": "%"}, {"measurement": "Percent of Rat Eyes With at Least Vacuoles Formed", "setting": "1.26 mg/kg p.o., Day 6", "result": 0.0, "unit": "%"}, {"measurement": "Percent of Rat Eyes With at Least Vacuoles Formed", "setting": "1.26 mg/kg p.o., Day 6, listed as 2,7-difluoro", "result": 0, "unit": "%"}, {"measurement": "Percent of Rat Eyes With at Least Vacuoles Formed", "setting": "1.26 mg/kg p.o., Day 7", "result": 0, "unit": "%"}, {"measurement": "Percent of Rat Eyes With at Least Vacuoles Formed", "setting": "1.26 mg/kg p.o., Day 8", "result": 0, "unit": "%"}, {"measurement": "Percent of Rat Eyes With at Least Vacuoles Formed", "setting": "1.26 mg/kg p.o., Day 9", "result": 0, "unit": "%"}, {"measurement": "Percent of Rat Eyes With at Least Vacuoles Formed", "setting": "1.26 mg/kg p.o., Day 10", "result": 0, "unit": "%"}, {"measurement": "Percent of Rat Eyes With at Least Vacuoles Formed", "setting": "1.26 mg/kg p.o., Day 12", "result": 0, "unit": "%"}, {"measurement": "Percent of Rat Eyes With at Least Vacuoles Formed", "setting": "1.26 mg/kg p.o., Day 14", "result": 0, "unit": "%"}, {"measurement": "Percent of Rat Eyes With at Least Vacuoles Formed", "setting": "4.0 mg/kg p.o., Day 0", "result": 0, "unit": "%"}, {"measurement": "Percent of Rat Eyes With at Least Vacuoles Formed", "setting": "4.0 mg/kg p.o., Day 1", "result": 0, "unit": "%"}, {"measurement": "Percent of Rat Eyes With at Least Vacuoles Formed", "setting": "4.0 mg/kg p.o., Day 2", "result": 0, "unit": "%"}, {"measurement": "Percent of Rat Eyes With at Least Vacuoles Formed", "setting": "4.0 mg/kg p.o., Day 3", "result": 0, "unit": "%"}, {"measurement": "Percent of Rat Eyes With at Least Vacuoles Formed", "setting": "4.0 mg/kg p.o., Day 4", "result": 0, "unit": "%"}, {"measurement": "Percent of Rat Eyes With at Least Vacuoles Formed", "setting": "4.0 mg/kg p.o., Day 5", "result": 0, "unit": "%"}, {"measurement": "Percent of Rat Eyes With at Least Vacuoles Formed", "setting": "4.0 mg/kg p.o., Day 6", "result": 0.0, "unit": "%"}, {"measurement": "Percent of Rat Eyes With at Least Vacuoles Formed", "setting": "4.0 mg/kg p.o., Day 6, listed as 2,7-difluoro", "result": 0, "unit": "%"}, {"measurement": "Percent of Rat Eyes With at Least Vacuoles Formed", "setting": "4.0 mg/kg p.o., Day 7", "result": 0.0, "unit": "%"}, {"measurement": "Percent of Rat Eyes With at Least Vacuoles Formed", "setting": "4.0 mg/kg p.o., Day 7, listed as 2,7-difluoro", "result": 0, "unit": "%"}, {"measurement": "Percent of Rat Eyes With at Least Vacuoles Formed", "setting": "4.0 mg/kg p.o., Day 8", "result": 0.0, "unit": "%"}, {"measurement": "Percent of Rat Eyes With at Least Vacuoles Formed", "setting": "4.0 mg/kg p.o., Day 8, listed as 2,7-difluoro", "result": 0, "unit": "%"}]}
